Measurements from publication PMC6413923 (Journal of medicinal chemistry, 2017).
Where two headings read alike, the source gives them in different places. Each block holds one molecule with its values, some of them ahead of it.

Columns and labels:
[1] = tested on: wild-type mice subjected to CLP; settings: cited from earlier work
[2] = tested on: lung myeloperoxidase (MPO); settings: cited from earlier work
cytokines and chemokines = settings: cited from earlier work
MMP-1 = biological target: T1, MMP-1 (Homo sapiens, UniProt P03956); settings: in words; cited from earlier work
T1 sequence (P03956 100-469): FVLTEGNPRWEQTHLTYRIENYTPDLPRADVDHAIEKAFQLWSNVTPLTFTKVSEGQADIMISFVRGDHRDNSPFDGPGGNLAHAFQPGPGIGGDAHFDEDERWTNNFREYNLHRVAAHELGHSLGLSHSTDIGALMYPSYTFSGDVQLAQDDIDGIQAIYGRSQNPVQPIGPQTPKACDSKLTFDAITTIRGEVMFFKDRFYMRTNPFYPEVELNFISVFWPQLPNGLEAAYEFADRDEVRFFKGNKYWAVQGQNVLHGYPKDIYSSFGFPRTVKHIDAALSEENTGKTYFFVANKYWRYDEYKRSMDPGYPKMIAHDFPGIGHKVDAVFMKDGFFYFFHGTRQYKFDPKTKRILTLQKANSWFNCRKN

collagenolytic MMPs = settings: in words, cited from earlier work
MMP-2 = MMP-2 (Homo sapiens, UniProt P08253); settings: cited from earlier work; for Ki: read-out: Ki(app) MMP-2
Sequence of MMP-2 (P08253 110-465 limits assumed): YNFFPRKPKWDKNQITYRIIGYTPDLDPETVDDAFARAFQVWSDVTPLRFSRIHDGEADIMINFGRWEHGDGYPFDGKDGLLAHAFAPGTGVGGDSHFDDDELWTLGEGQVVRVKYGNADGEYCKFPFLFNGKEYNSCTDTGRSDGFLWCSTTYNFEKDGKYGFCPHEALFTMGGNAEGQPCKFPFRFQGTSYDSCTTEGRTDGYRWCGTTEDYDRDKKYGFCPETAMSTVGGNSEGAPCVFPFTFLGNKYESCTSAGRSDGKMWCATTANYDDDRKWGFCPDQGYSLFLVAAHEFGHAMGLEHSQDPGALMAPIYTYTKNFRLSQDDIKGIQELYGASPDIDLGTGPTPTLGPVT

MT1-MMP = MT1-MMP (Homo sapiens, UniProt P50281); settings: cited from earlier work
MMP-9 = MMP-9 (Homo sapiens, UniProt P14780); settings: cited from earlier work; for Ki: read-out: Ki(app) MMP-9
Sequence of MMP-9 (P14780 107-444 limits assumed): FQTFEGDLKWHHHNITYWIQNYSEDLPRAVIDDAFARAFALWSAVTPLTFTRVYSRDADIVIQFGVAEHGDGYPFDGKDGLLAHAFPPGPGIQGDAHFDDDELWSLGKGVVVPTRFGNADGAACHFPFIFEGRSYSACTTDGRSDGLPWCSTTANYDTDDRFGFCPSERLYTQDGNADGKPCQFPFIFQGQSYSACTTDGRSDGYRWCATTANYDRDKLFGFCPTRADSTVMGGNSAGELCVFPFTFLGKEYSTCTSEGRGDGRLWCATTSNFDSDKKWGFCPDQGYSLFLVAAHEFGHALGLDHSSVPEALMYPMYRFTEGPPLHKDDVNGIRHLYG

CD thermal transition = assay type: physicochemical; settings: 25 °C, from thermal transition at 225 nm
[3] = first generation THPI; cited from earlier work

Molecule: COc1ccc(S(=O)(=O)N2Cc3ccccc3C[C@@H]2C(=O)NO)cc1 [(3R)-(+) - [2-(4-methoxy-benzenesulfonyl)-1,2,3,4-tetrahydroisoquinoline-3-hydroxamate]]
survival of CLP mice [1]: improved survival
whole lung MPO activity in CLP mice [2]: reduced whole lung MPO activity
IL-1β in CLP mice (cytokines and chemokines): significantly reduced
IL-6 in CLP mice (cytokines and chemokines): significantly reduced
MIP-1α in CLP mice (cytokines and chemokines): significantly reduced
TNF-α in CLP mice (cytokines and chemokines): significantly reduced

Molecule: (Gly-Pro-Hyp)4-Gly-mep-Flp-Gly-Pro-Gln-GlyΨ{PO2H-CH2}Leu-Ala-Gly-Gln-Arg-Gly-Ile-Arg-Gly-mep-Flp-(Gly-Pro-Hyp)4-Tyr-NH2 [α1(I-III)GlyΨ{PO2H-CH2}Leu THPI]
inhibition of MMP-1 (MMP-1): effectively inhibits
selectivity toward collagenolytic MMPs (collagenolytic MMPs; first generation): selective toward collagenolytic MMPs
inhibition of MMPs (collagenolytic MMPs): low nanomolar range
inhibition of MMP-2 (MMP-2; in words): effectively inhibits
Ki (MT1-MMP; read-out: Ki MT1-MMP): 120 nM
inhibition of MMP-9 (MMP-9; in words): effectively inhibits

Molecule: (Gly-Pro-Hyp)5-Gly-Arg-Ile-Gly-Phe~Leu-Arg-Thr-Gln-Gly-Val-Arg-(Gly-Pro-Hyp)5-Tyr-NH2 [FLRT]
% folded (CD thermal transition): 79%

Molecule: (Gly-Pro-Hyp)5-Gly-Arg-Ile-Gly-Phe~Leu-Asp-Pro-Gln-Gly-Val-Arg-(Gly-Pro-Hyp)5-Tyr-NH2 [FLDP]
% folded (CD thermal transition): 72%

Molecule: C6-(Gly-Pro-Hyp)4-Gly-Pro-Pro-GlyΨ{PO2H-CH2}Val-Val-Gly-Glu-Gln-Gly-Glu-Gln-Gly-Pro-Pro-(Gly-Pro-Hyp)4-NH2 [C6-α1(V)GlyΨ{PO2H-CH2}Val THPI]
inhibition of MMPs (collagenolytic MMPs): low nanomolar range
Tm [3]: 25 °C
Ki (MMP-2; 10 °C): 4.14 ± 0.47 nM
Ki (MMP-2; 37 °C): 19.2 ± 0.64 nM
inhibition of MT1-MMP (MT1-MMP): did not inhibit MT1-MMP
inhibition of full-length (82 kDa) MMP-9 versus TIMP-1 resistant (65 kDa) MMP-9 (MMP-9; comparison in words): similar
Ki (MMP-9; 10 °C): 1.76 ± 0.05 nM
Ki (MMP-9; 37 °C): 1.29 nM

The remaining lines, values ahead:

% folded (CD thermal transition): 72%
Molecule: (Gly-Pro-Hyp)5-Gly-Arg-Ile-Gly-His~Leu-Arg-Thr-Gln-Gly-Val-Arg-(Gly-Pro-Hyp)5-Tyr-NH2 [HLRT]

% folded (CD thermal transition): 83%
Molecule: (Gly-Pro-Hyp)6-Gly-Pro-Gln-Gly~Ile-His-Lys-Gln-Arg-Gly-Val-Arg-(Gly-Pro-Hyp)5-NH2 [IHK]

% folded (CD thermal transition): 88%
Molecule: (Gly-Pro-Hyp)6-Gly-Pro-Gln-Gly~Ile-Tyr-Phe-Gln-Arg-Gly-Val-Arg-(Gly-Pro-Hyp)5-NH2 [IYF]

% folded (CD thermal transition): 87%
Molecule: (Gly-Pro-Hyp)6-Gly-Pro-Gln-Gly~Val-Gln-His-Gln-Arg-Gly-Val-Arg-(Gly-Pro-Hyp)5-NH2 [VQH]

% folded (CD thermal transition): 92%
Molecule: (Gly-Pro-Hyp)6-Gly-Pro-Gln-Gly~Val-Ser-Trp-Gln-Arg-Gly-Val-Arg-(Gly-Pro-Hyp)5-NH2 [VSW]
